# Measurements taken from PMC13095408, “DBeQ derivative targets vacuolar protein sorting 4 functions in cancer cells and suppresses tumor growth in mice” (The Journal of Pharmacology and Experimental Therapeutics, 2025).
# Experiments:
# [1] = tested on: GFP-CHMP4B-expressing U2OS cells; assay: GFP-CHMP4B accumulation cell-based assay (high-content microscopy); conditions: for 4-107-induced GFP-CHMP4B accumulation on co-treatment: 100 nM BafA1 or 50 μM CQ with 2 μM 4-107, starved, 2 hours
# Method: Plates were then scanned using the 20× objective for 1 hour with ≥100 cells/well across 6 fields/well. […] For all other assays, the cells were cultured overnight in black glass-bottom 96-well plates (Cellvis; P96-1.5H-N) then stained, rinsed, and treated with SM containing the indicated compounds (0.1% DMSO or 0.1% DMSO/0.1% ethanol [vehicle] final). Plates were scanned using the 20× NA .70 objective at the indicated intervals with ≥ 300 cells/well across 3 fields/well. […]
# VPS4B = target: T1, VPS4B (Homo sapiens, UniProt O75351); assay: VPS4B ATPase activity, EnzChek Phosphate assay; format: biochemical; set-up: His tag (pET28a vector-encoded) (N); made in house; host or cells: Escherichia coli BL21(DE3)
# T1 sequence (O75351 1-444): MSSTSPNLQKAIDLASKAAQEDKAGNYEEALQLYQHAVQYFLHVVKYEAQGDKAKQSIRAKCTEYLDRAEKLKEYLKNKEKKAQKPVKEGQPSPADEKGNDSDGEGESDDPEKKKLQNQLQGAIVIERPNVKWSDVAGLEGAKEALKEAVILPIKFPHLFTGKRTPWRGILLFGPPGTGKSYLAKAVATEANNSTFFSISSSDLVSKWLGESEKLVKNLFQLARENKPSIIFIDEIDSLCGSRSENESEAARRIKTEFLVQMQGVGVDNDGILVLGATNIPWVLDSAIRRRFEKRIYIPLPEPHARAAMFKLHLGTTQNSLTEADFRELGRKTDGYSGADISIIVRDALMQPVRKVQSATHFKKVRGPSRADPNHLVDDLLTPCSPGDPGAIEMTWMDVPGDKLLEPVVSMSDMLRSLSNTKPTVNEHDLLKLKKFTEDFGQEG
# Method: VPS4B and VCP ATPase activities were measured using the EnzChek Phosphate assay for the quantification of released phosphate. Assay buffers were based on literature precedents ([Cupido et al, 2019], [2021]) as follows: VPS4B buffer (20 mM HEPES-KOH, pH 7.4, 25 mM KOAc, 2 mM MgCl2, 5 mM (NH4)2SO4, 0.5 mM CaCl2, 2.5 mM DTT, 0.1 mg/mL BSA, 0.005% v/v Triton X-100), VCP buffer (20 mM HEPES-NaOH, pH 7.4, 20 mM NaCl, 10 mM MgCl2, 5 mM (NH4)2SO4, 0.5 mM CaCl2, 2.5 mM DTT, 0.1 mg/mL BSA, 0.005% v/v Triton X-100). In black clear-bottom 384-well plates, 22.5 μL of 5% DMSO or 40× test compounds diluted in the respective assay buffer was added to each well. ATPases were diluted to 1 μM in the respective buffers containing 2× EnzChek Phosphate assay coupling reagents of 400 μM MESG and 2 U of PNP, then 25 μL was added to each well. Plates were mixed at 1000 rpm for 30 minutes at RT while being protected from light. The reaction was initiated by adding 2.5 μL of 20 mM MgATP or water followed by mixing at 1200 rpm for 30 seconds at RT. Plates were measured at 360 nm using a CLARIOstar plate reader (BMG LABTECH) for 20 minutes at 37 °C. ATPase activity was calculated as the amount of phosphate released over a 5-minute interval under linear initial velocity conditions. The remaining ATPase activity was calculated by normalizing compound-treated activity values to the DMSO control. IC50 was calculated by fitting normalized values to a sigmoidal dose-response curve with Hill slope = −1 using Graph Pad Prism 10.0.
# To identify VPS4i, we developed enzyme- and cell-based VPS4 functional assays to serve as VPS4i-screening platforms. For the enzyme-based assay, we used the colorimetric EnzChek Phosphate assay that detects free phosphate with the advantage of continuous measurement of ATP hydrolysis over time. […] Due to the high sequence and structural similarity of AAA-ATPases, we also established a VCP ATPase assay to evaluate hit selectivity. […] For the cell-based assay, our approach was based on how VPS4 inhibition causes the accumulation of ESCRT-III ([Babst et al, 1998]; [Katoh et al, 2003]). We used an N-terminal GFP-tagged CHMP4B reporter system because it is the most abundant ESCRT-III subunit ([Katoh et al, 2004]; [Teis et al, 2008]). Our aim was to test compounds under short-term serum and amino acid starvation to stimulate ESCRT activity for easier detection of inhibitors ([Takahashi et al, 2018], [2019]). […] Overall, we established 2 systems for VPS4i screening, a VPS4B ATPase activity assay and a GFP-CHMP4B accumulation cell-based assay.
# [2] = screened at 1 µM, mean ± S.D., Supplemental Table 2
# [3] = screened at 1 μM, starvation media, 1 hour, foci intensity per cell normalized to 4-107, mean ± SD, Table 1
# [4] = remaining ATPase activity, screened at 5 μM, mean ± SD, Table 1
# [5] = screened at 5 µM, mean ± S.D., Supplemental Table 2
Compound,"GFP-CHMP4B (% 4-107) [1, 2] [% 4-107]",VPS4B ATPase (% DMSO) (VPS4B; [5]),also measured
COC(=O)c1cccc(CNc2nc(NCc3ccccc3)c3cccc(OC)c3n2)c1 [Compound 14],13.39 ± 9.03,42.10 ± 0.26,"GFP-CHMP4B (% 4-107) [1, 3]: 13.39 ± 9.03 % 4-107; VPS4B ATPase (% DMSO) (VPS4B; [4]): 42.10 ± 0.26 % DMSO"
COc1cccc2c(NCc3ccccc3)nc(Cl)nc12 [Compound 4-95],1.76 ± 0.74,,
COC(=O)c1cccc(CNc2nc(NCc3cccc(C(=O)OC)c3)c3cccc(OC)c3n2)c1 [Compound 4-131-iii],11.94 ± 9.74,34.70 ± 0.70,
COc1cccc2c(NCc3ccccc3)nc(NCc3cccc(OC(F)(F)F)c3)nc12 [Compound 7-11],22.15 ± 1.19,46.29 ± 0.61,
COc1cccc2c(NCc3ccccc3)nc(-n3ccc4ccc(C(=O)O)cc43)nc12 [Compound 5-39-iv],1.59 ± 0.93,93.04 ± 0.65,
COc1cccc2c(NCc3ccccc3)nc(NCc3ccc4ccccc4c3)nc12 [Compound 12],10.42 ± 6.42,30.39 ± 0.43,"GFP-CHMP4B (% 4-107) [1, 3]: 10.42 ± 6.42 % 4-107; VPS4B ATPase (% DMSO) (VPS4B; [4]): 30.39 ± 0.43 % DMSO"
COc1cccc2c(NCc3ccccc3)nc(Nc3ccc4scnc4c3)nc12 [Compound 5-67],1.60 ± 0.33,51.60 ± 0.35,
COc1cccc2c(NCCc3ccccc3)nc(N[C@H](C)c3ccc4ccccc4c3)nc12 [Compound 5-99],3.40 ± 1.02,45.77 ± 2.14,
COC(=O)c1cccc2c1ccn2-c1nc(NCc2ccccc2)c2cccc(OC)c2n1 [Compound 5-135],4.63 ± 2.05,86.66 ± 2.70,
COc1cccc2c(NCCc3ccccc3)nc(-n3ccc4cncnc43)nc12 [Compound 5-59],2.84 ± 0.06,97.54 ± 1.15,
COc1cccc2nc(NCc3ccccc3)nc(NCc3ccccc3)c12 [Compound 7-27],19.55 ± 2.22,,
COc1cccc2c(NCc3ccccc3)nc(NCc3nc4ccccc4s3)nc12 [Compound 5-105],1.30 ± 1.20,56.25 ± 2.23,
COc1cccc2c(NCc3ccccc3)nc(-n3ccc4c(C(N)=O)cccc43)nc12 [Compound 5-139],1.75 ± 0.11,90.05 ± 5.58,
COc1cccc2c(NCc3ccccc3)nc(NCc3ccccc3)nc12 [Compound 4],,,"GFP-CHMP4B (% 4-107) ([1]; screened at 1 µM, mean ± S.D., Supplemental Table 2, listed as 5-133): 2.92 ± 2.81 % 4-107; GFP-CHMP4B (% 4-107) [1, 3]: 2.92 ± 2.81 % 4-107; VPS4B ATPase (% DMSO) (VPS4B; [4]): 75.23 ± 0.63 % DMSO; VPS4B ATPase (% DMSO) (VPS4B; screened at 5 µM, mean ± S.D., Supplemental Table 2, listed as 5-133): 75.23 ± 0.63 % DMSO"
COc1cccc2c(NCc3ccccc3)nc(-n3ccc4cc(C(=O)O)ccc43)nc12 [Compound 5-41-iv],1.29 ± 1.06,87.4 ± 1.43,
COc1cccc2c(NCc3ccccc3)nc(Cl)nc12 [Compound 3],,71.88 ± 3.41,"GFP-CHMP4B (% 4-107) ([1]; screened at 1 µM, mean ± S.D., Supplemental Table 2, listed as 5-125): 3.86 ± 2.41 % 4-107; GFP-CHMP4B (% 4-107) [1, 3]: 3.86 ± 2.41 % 4-107; VPS4B ATPase (% DMSO) (VPS4B; [4]): 71.88 ± 3.41 % DMSO"
COc1cccc2c(NCc3cccc(C(=O)O)c3)nc(NCc3cccc(C(=O)O)c3)nc12 [Compound 4-131-iv],1.10 ± 0.68,105.12 ± 0.39,

Compound,"GFP-CHMP4B (% 4-107) [1, 2] [% 4-107]",VPS4B ATPase (% DMSO) (VPS4B; [5]),also measured
COc1cccc2c(Nc3ccccc3)nc(NCc3ccccc3)nc12 [Compound 7-75],11.57 ± 12.42,,
COC(=O)c1ccc2c(ccn2-c2nc(NCc3ccc(S(N)(=O)=O)cc3)c3cccc(OC)c3n2)c1 [Compound 5-47],1.41 ± 0.61,,
COC(=O)c1ccc2ccn(-c3nc(NCCc4ccc(S(N)(=O)=O)cc4)c4cccc(OC)c4n3)c2c1 [Compound 5-43-iii],3.01 ± 1.98,94.98 ± 0.53,
COc1ncnc2c1ccn2-c1nc(NCc2ccc(C(F)(F)F)cc2)c2cccc(OC)c2n1 [Compound 5-57],2.44 ± 0.81,93.98 ± 3.83,
COc1cccc2c(NCc3cccc(OC(F)(F)F)c3)nc(NCc3ccccc3)nc12.Cl [Compound 5-33-iv],5.27 ± 1.53,25.77 ± 2.48,
COc1cccc2c(NCc3ccc(C(F)(F)F)cc3)nc(-n3ccc4cncnc43)nc12 [Compound 5-55],2.25 ± 0.55,93.20 ± 1.22,
COc1cccc2c(NCc3ccccc3)nc(N[C@H](C)c3ccc4ccccc4c3)nc12 [Compound 5-95],2.43 ± 1.04,42.87 ± 1.98,
COc1cccc2c(NCc3ccccc3)nc(N[C@H](C)c3cccc4ccccc34)nc12 [Compound 5-103],4.36 ± 1.56,45.60 ± 2.79,
COc1cccc2c(NCc3ccccc3)nc(NCc3cccc(C(F)(F)F)c3)nc12 [Compound 15],25.61 ± 20.09,28.57 ± 1.13,"GFP-CHMP4B (% 4-107) [1, 3]: 25.61 ± 20.09 % 4-107; VPS4B ATPase (% DMSO) (VPS4B; [4]): 28.57 ± 1.13 % DMSO"
COc1ccc2c(Nc3ccccc3)nc(Cl)nc2c1 [Compound 7-41],17.93 ± 2.08,,
Nc1cccc2c(NCc3ccccc3)nc(NCc3ccc(F)cc3)nc12 [Compound 7-69],20.04 ± 6.12,,
"CCN(CC)CCCC(C)Nc1ccnc2cc(Cl)ccc12 (stereo not drawn) [CQ, chloroquine diphosphate, reference compound]",,,4-107-induced GFP-CHMP4B accumulation on co-treatment [1]: blocked
COc1ccc2c(Nc3ccccc3)nc(NCc3ccccc3)nc2c1 [Compound 7-45],24.94 ± 5.94,,
Fc1ccc2nc(NCc3ccccc3)nc(NCc3ccccc3)c2c1 [Compound 5-143],11.12 ± 2.40,,
Nc1cccc2c(NCc3ccccc3)nc(NCc3cccc(F)c3)nc12 [Compound 7-77],26.24 ± 20.18,,
COc1ccc(CNc2nc(NCc3ccccc3)c3cccc(N)c3n2)cc1 [Compound 7-65],17.36 ± 5.75,,
"CO/C1=C\C(C)=C\[C@@H](C)[C@@H](O)[C@@H](C)C/C(C)=C/C=C/[C@H](OC)[C@@H]([C@@H](C)[C@@H](O)[C@H](C)[C@@]2(O)C[C@@H](O)[C@H](C)[C@@H](C(C)C)O2)OC1=O [BafA1, bafilomycin A1, reference compound]",,,4-107-induced GFP-CHMP4B accumulation on co-treatment [1]: blocked
